Where two headings read alike, the source gives them in different places. Starred links: 1 amine or outer side, 2 acyl side, 3 side chain; linkers in the order of their positions; H or OH if unused. Non-standard residues stand in square brackets, D forms with d. Residues, ends and D or L forms follow the SMILES beside them. X31 = C[C@H](CN1C[C@H](C)OC[C@@H]1C)[C@@H](C(=O)[*:2])N(C)[*:1]; X54 = CCOC(=O)N1CCN(C[C@@H](C)[C@@H](C(=O)[*:2])N(C)[*:1])CC1; X56 = CCN1CCN(C(=O)OC[C@@H](C)[C@@H](C(=O)[*:2])N(C)[*:1])CC1; X70 = C[C@H](CCCOC(=O)N1CCN(C)CC1)[C@@H](C(=O)[*:2])N(C)[*:1]; X73 = CO[C@H]1CCN(CCOC[C@@H](C)[C@@H](C(=O)[*:2])N(C)[*:1])C1; X29 = CC(=O)N1CCN(C[C@@H](C)[C@@H](C(=O)[*:2])N(C)[*:1])CC1; X46 = C[C@H](CN1CC2CCC(C1)O2)[C@@H](C(=O)[*:2])N(C)[*:1]; X51 = C[C@H](CN1CCC2(COC2)C1)[C@@H](C(=O)[*:2])N(C)[*:1]; X71 = COC1CN(CC[C@@H](C)[C@@H](C(=O)[*:2])N(C)[*:1])C1; X65 = C[C@H](CCN1CCCCC1)[C@@H](C(=O)[*:2])N(C)[*:1]; MeBmt = C/C=C/C[C@@H](C)[C@@H](O)[C@H](NC)C(=O)O; NMeL = CN[C@@H](CC(C)C)C(=O)O; NMeV = CN[C@H](C(=O)O)C(C)C; dNMeA = CN[C@H](C)C(=O)O; Abu = CC[C@H](N)C(=O)O
Key:
cyclophilin A (CypA) = cyclophilin A (CypA) (Homo sapiens (Human), UniProt P62937); assay: Inhibitor binding to cyclophilin proteins by SPR, CypA; set-up: unit not given here; details: 1:1 binding model;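 note: Single-cycle kinetics on a Biacore T200, compound injected at several concentrations for 1 min each at 50 µL/min, then 10 min dissociation, in HEPES pH 7.4 buffer with 3% DMSO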
cyclophilin A (CypA), sequence (P62937 whole entry): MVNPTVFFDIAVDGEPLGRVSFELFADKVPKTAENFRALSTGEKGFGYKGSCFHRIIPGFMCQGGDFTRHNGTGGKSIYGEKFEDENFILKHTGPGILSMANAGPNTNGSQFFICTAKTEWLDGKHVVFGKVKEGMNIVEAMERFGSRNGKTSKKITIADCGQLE

cyclophilin B (CypB) = cyclophilin B (CypB) (Homo sapiens (Human), UniProt P23284); assay: Inhibitor binding to cyclophilin proteins by SPR, CypB; set-up: unit not given here; details: 1:1 binding model
cyclophilin B (CypB), sequence (P23284 34-216): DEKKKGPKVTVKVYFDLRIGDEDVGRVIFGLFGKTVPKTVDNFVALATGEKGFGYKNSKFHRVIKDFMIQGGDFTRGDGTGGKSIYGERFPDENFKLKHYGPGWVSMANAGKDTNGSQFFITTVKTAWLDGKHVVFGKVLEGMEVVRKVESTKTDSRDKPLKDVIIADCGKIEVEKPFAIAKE
Method in brief: (§1)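 Mono-biotinylated avi-tagged cyclophilins captured on a Biotin CAPture chip. Single-cycle kinetics at 50 μL/min, 1 min contacts, 10 min final dissociation, in 10 mM HEPES pH 7.4, 150 mM NaCl, 0.05% P20, 3% DMSO. kon, koff and KD from a 1:1 binding model.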

CypF = CypF (Homo sapiens (Human), UniProt P30405); assay: Inhibitor binding to cyclophilin proteins by SPR, CypF; details: 1:1 binding model
CypF, sequence (P30405 30-207): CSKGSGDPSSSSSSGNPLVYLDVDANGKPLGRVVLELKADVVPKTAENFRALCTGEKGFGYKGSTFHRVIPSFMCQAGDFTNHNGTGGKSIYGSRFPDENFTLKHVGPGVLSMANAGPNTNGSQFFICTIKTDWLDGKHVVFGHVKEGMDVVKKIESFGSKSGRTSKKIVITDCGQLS
Method in brief: as §1

[1] = tested on: genotype 1b subgenomic HCV replicon in Huh7.5 cells; type: cell-based, hepatitis C virus; details: read-out: RPLN-1b IC50
Method in brief: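 Replicon inhibition read as renilla luciferase signal versus DMSO controls after 72 h incubation, in Huh7.5 cells harbouring a genotype 1b subgenomic replicon; medium phenol red-free DMEM lacking G418. CC50 determined in parallel via Cell Titer-Glo.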

[2] = tested on: peripheral blood mononuclear cells (PBMC); assay: Anti-proliferative or immunosuppressive activity, BrdU incorporation in PHA-stimulated PBMC; type: cell-based; details: PHA 3 μg/ml, 60 hour compound treatment; read-out: EMV PBMC IC50
Method in brief: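 BrdU ELISA read-out of DNA synthesis in freshly isolated PBMCs (two donors, 30,000 cells/well, X-VIVO 15). T-cell proliferation triggered with phytohemagglutinin at 3 μg/ml.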

[3] = target: organic anion transporting polypeptide 1B1 (OATP1B1) (Homo sapiens (Human), UniProt Q9Y6L6); assay: OATP assay in CHO-OATP1B1 cells;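 note: inhibition of probe substrate uptake into the cells, ten minutes exposure, accumulated substrate read by fluorescence once cells were lysed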
organic anion transporting polypeptide 1B1 (OATP1B1), sequence (Q9Y6L6 whole entry): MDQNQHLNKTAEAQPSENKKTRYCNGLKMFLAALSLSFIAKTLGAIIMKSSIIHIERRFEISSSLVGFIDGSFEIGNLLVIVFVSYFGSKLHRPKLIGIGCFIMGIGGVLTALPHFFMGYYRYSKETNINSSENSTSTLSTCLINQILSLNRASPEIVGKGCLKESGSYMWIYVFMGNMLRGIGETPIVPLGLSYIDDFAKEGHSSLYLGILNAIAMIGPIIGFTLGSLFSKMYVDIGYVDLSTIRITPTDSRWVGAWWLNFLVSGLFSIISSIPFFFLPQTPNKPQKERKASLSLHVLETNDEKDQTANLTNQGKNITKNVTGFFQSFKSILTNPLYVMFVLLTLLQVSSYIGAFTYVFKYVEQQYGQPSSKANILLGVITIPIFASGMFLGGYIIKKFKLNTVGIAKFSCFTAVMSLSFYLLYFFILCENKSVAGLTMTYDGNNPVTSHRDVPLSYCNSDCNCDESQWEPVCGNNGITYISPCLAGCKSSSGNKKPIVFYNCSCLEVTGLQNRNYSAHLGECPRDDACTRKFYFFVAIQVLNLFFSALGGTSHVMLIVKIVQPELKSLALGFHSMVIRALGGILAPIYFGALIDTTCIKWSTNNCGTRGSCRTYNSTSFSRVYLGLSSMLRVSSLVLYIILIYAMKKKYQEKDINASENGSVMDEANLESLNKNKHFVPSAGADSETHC

[4] = genotype 1b replicon, 72 h incubation

| Structure (SMILES) | CypA Kd (cyclophilin A (CypA)) | CypB Kd (cyclophilin B (CypB)) | CypF Kd (CypF) [nM] | IC50 [1, 4] [nM] | IC50 [2] [nM] | IC50 [3] [nM] | IC50 [1] [nM] |
| --- | --- | --- | --- | --- | --- | --- | --- |
| C/C=C/C[C@@H](C)[C@@H](O)[C@H]1C(=O)N[C@@H](CC)C(=O)N(C)[C@H](C)C(=O)N(C)[C@@H]([C@H](C)CN2CCN(C(=O)OCC)CC2)C(=O)N[C@@H](C(C)C)C(=O)N(C)[C@@H](CC(C)C)C(=O)N[C@@H](C)C(=O)N[C@H](C)C(=O)N(C)[C@@H](CC(C)C)C(=O)N(C)[C@@H](CC(C)C)C(=O)N(C)[C@@H](C(C)C)C(=O)N1C [Compound 2.5.31, 3-[D-Ala]-4-[(2S,3R)-4-(4-(ethoxycarbonyl)piperazin-1-yl)-3-methyl-2-(methylamino)butanoyl]-cyclosporin] (cyclo(A[dA][NMeL][NMeL][NMeV][MeBmt][Abu][dNMeA][X54]V[NMeL])) | 2.5 | 1.1 | 1.3 | 55 | 18900 | 2100 | – |
| C/C=C/C[C@@H](C)[C@@H](O)[C@H]1C(=O)N[C@@H](CC)C(=O)N(C)[C@H](C)C(=O)N(C)[C@@H]([C@H](C)CN2CCC3(COC3)C2)C(=O)N[C@@H](C(C)C)C(=O)N(C)[C@@H](CC(C)C)C(=O)N[C@@H](C)C(=O)N[C@H](C)C(=O)N(C)[C@@H](CC(C)C)C(=O)N(C)[C@@H](CC(C)C)C(=O)N(C)[C@@H](C(C)C)C(=O)N1C [Compound 2.5.33, 3-[D-Ala]-4-[(2S,3R)-3-methyl-2-(methylamino)-4-(2-oxa-6-azaspiro[3.4]octan-6-yl)butanoyl]-cyclosporin] (cyclo(A[dA][NMeL][NMeL][NMeV][MeBmt][Abu][dNMeA][X51]V[NMeL])) | 1.1 | 0.8 | 0.8 | 46 | 10300 | 2000 | – |
| C/C=C/C[C@@H](C)[C@@H](O)[C@H]1C(=O)N[C@@H](CC)C(=O)N(C)[C@H](C)C(=O)N(C)[C@@H]([C@H](C)COC(=O)N2CCN(CC)CC2)C(=O)N[C@@H](C(C)C)C(=O)N(C)[C@@H](CC(C)C)C(=O)N[C@@H](C)C(=O)N[C@H](C)C(=O)N(C)[C@@H](CC(C)C)C(=O)N(C)[C@@H](CC(C)C)C(=O)N(C)[C@@H](C(C)C)C(=O)N1C [Compound 2.5.24, 3-[D-Ala]-4-[(2S,3S)-4-((4-ethylpiperazine-1-carbonyl)oxy)-3-methyl-2-(methylamino)butanoyl]-cyclosporin] (cyclo(A[dA][NMeL][NMeL][NMeV][MeBmt][Abu][dNMeA][X56]V[NMeL])) | 0.5 | 0.3 | 0.3 | 23 | 3600 | 1900 | – |
| C/C=C/C[C@@H](C)[C@@H](O)[C@H]1C(=O)N[C@@H](CC)C(=O)N(C)[C@H](C)C(=O)N(C)[C@@H]([C@H](C)CN2CC3CCC(C2)O3)C(=O)N[C@@H](C(C)C)C(=O)N(C)[C@@H](CC(C)C)C(=O)N[C@@H](C)C(=O)N[C@H](C)C(=O)N(C)[C@@H](CC(C)C)C(=O)N(C)[C@@H](CC(C)C)C(=O)N(C)[C@@H](C(C)C)C(=O)N1C [Compound 2.5.3, 3-[D-Ala]-4-[(2S,3R)-4-(8-oxa-3-azabicyclo[3.2.1]octan-3-yl)-3-methyl-2-(methylamino)butanoyl]-cyclosporin] (cyclo([MeBmt][Abu][dNMeA][X46]V[NMeL]A[dA][NMeL][NMeL][NMeV])) | 2.4 | 1.8 | 1.4 | – | 5800 | 1700 | 42 |
| C/C=C/C[C@@H](C)[C@@H](O)[C@H]1C(=O)N[C@@H](CC)C(=O)N(C)[C@H](C)C(=O)N(C)[C@@H]([C@H](C)CCCN2CCN(CC)CC2)C(=O)N[C@@H](C(C)C)C(=O)N(C)[C@@H](CC(C)C)C(=O)N[C@@H](C)C(=O)N[C@H](C)C(=O)N(C)[C@@H](CC(C)C)C(=O)N(C)[C@@H](CC(C)C)C(=O)N(C)[C@@H](C(C)C)C(=O)N1C (stereo in doubt) [Compound 2.19.4, 3-[D-Ala]-4-[(2S,3R)-6-(4-ethylpiperazin-1-yl)-3-methyl-2-(methylamino)hexanoyl]-cyclosporin] | 0.6 | 0.4 | 0.4 | 60 | 8800 | 2600 | – |
| C/C=C/C[C@@H](C)[C@@H](O)[C@H]1C(=O)N[C@@H](CC)C(=O)N(C)[C@H](C)C(=O)N(C)[C@@H]([C@H](C)CCCOC(=O)N2CCN(C)CC2)C(=O)N[C@@H](C(C)C)C(=O)N(C)[C@@H](CC(C)C)C(=O)N[C@@H](C)C(=O)N[C@H](C)C(=O)N(C)[C@@H](CC(C)C)C(=O)N(C)[C@@H](CC(C)C)C(=O)N(C)[C@@H](C(C)C)C(=O)N1C [Compound 2.19.7, 3-[D-Ala]-4-[(2S,3R)-3-methyl-2-(methylamino)-6-((4-methylpiperazine-1-carbonyl)oxy)hexanoyl]-cyclosporin] (cyclo(A[dA][NMeL][NMeL][NMeV][MeBmt][Abu][dNMeA][X70]V[NMeL])) | 1.1 | 0.7 | 0.7 | 11 | 15900 | 2900 | – |
| C/C=C/C[C@@H](C)[C@@H](O)[C@H]1C(=O)N[C@@H](CC)C(=O)N(C)[C@H](C)C(=O)N(C)[C@@H]([C@H](C)CN2C[C@H](C)OC[C@@H]2C)C(=O)N[C@@H](C(C)C)C(=O)N(C)[C@@H](CC(C)C)C(=O)N[C@@H](C)C(=O)N[C@H](C)C(=O)N(C)[C@@H](CC(C)C)C(=O)N(C)[C@@H](CC(C)C)C(=O)N(C)[C@@H](C(C)C)C(=O)N1C [Compound 2.5.6, 3-[D-Ala]-4-[(2S,3R)-4-((2S,5S)-2,5-dimethylmorpholino)-3-methyl-2-(methylamino)butanoyl]-cyclosporin] (cyclo(A[dA][NMeL][NMeL][NMeV][MeBmt][Abu][dNMeA][X31]V[NMeL])) | 5.0 | 2.7 | 2.5 | 35 | 3400 | 2600 | – |
| C/C=C/C[C@@H](C)[C@@H](O)[C@H]1C(=O)N[C@@H](CC)C(=O)N(C)[C@H](C)C(=O)N(C)[C@@H]([C@H](C)CN2CCN(C(C)=O)CC2)C(=O)N[C@@H](C(C)C)C(=O)N(C)[C@@H](CC(C)C)C(=O)N[C@@H](C)C(=O)N[C@H](C)C(=O)N(C)[C@@H](CC(C)C)C(=O)N(C)[C@@H](CC(C)C)C(=O)N(C)[C@@H](C(C)C)C(=O)N1C [Compound 2.5.23, 3-[D-Ala]-4-[(2S,3R)-4-(4-acetylpiperazin-1-yl)-3-methyl-2-(methylamino)butanoyl]-cyclosporin] (cyclo(A[dA][NMeL][NMeL][NMeV][MeBmt][Abu][dNMeA][X29]V[NMeL])) | 1.6 | 0.7 | 0.8 | 47 | 22800 | 2300 | – |
| C/C=C/C[C@@H](C)[C@@H](O)[C@H]1C(=O)N[C@@H](CC)C(=O)N(C)[C@H](C)C(=O)N(C)[C@@H]([C@H](C)CCN2CCCCC2)C(=O)N[C@@H](C(C)C)C(=O)N(C)[C@@H](CC(C)C)C(=O)N[C@@H](C)C(=O)N[C@H](C)C(=O)N(C)[C@@H](CC(C)C)C(=O)N(C)[C@@H](CC(C)C)C(=O)N(C)[C@@H](C(C)C)C(=O)N1C [Compound 2.18.8, 3-[D-Ala]-4-[(2S,3R)-3-methyl-2-(methylamino)-5-(piperidin-1-yl)pentanoyl]-cyclosporin] (cyclo(A[dA][NMeL][NMeL][NMeV][MeBmt][Abu][dNMeA][X65]V[NMeL])) | 0.9 | 0.7 | 0.5 | 45 | 1000 | 2300 | – |
| C/C=C/C[C@@H](C)[C@@H](O)[C@H]1C(=O)N[C@@H](CC)C(=O)N(C)[C@H](C)C(=O)N(C)[C@@H]([C@H](C)CCN2CC(OC)C2)C(=O)N[C@@H](C(C)C)C(=O)N(C)[C@@H](CC(C)C)C(=O)N[C@@H](C)C(=O)N[C@H](C)C(=O)N(C)[C@@H](CC(C)C)C(=O)N(C)[C@@H](CC(C)C)C(=O)N(C)[C@@H](C(C)C)C(=O)N1C [Compound 2.18.5, 3-[D-Ala]-4-[(2S,3R)-5-(3-methoxyazetidin-1-yl)-3-methyl-2-(methylamino)pentanoyl]-cyclosporin] (cyclo(A[dA][NMeL][NMeL][NMeV][MeBmt][Abu][dNMeA][X71]V[NMeL])) | 0.9 | 0.6 | 0.5 | 78 | 8100 | 1400 | – |
| C/C=C/C[C@@H](C)[C@@H](O)[C@H]1C(=O)N[C@@H](CC)C(=O)N(C)[C@H](C)C(=O)N(C)[C@@H]([C@H](C)COCCN2CC[C@H](OC)C2)C(=O)N[C@@H](C(C)C)C(=O)N(C)[C@@H](CC(C)C)C(=O)N[C@@H](C)C(=O)N[C@H](C)C(=O)N(C)[C@@H](CC(C)C)C(=O)N(C)[C@@H](CC(C)C)C(=O)N(C)[C@@H](C(C)C)C(=O)N1C [Compound 2.8.7, 3-[D-Ala]-4-[(2S,3S)-4-(2-((S)-3-methoxypyrrolidin-1-yl)ethoxy)-3-methyl-2-(methylamino)butanoyl]-cyclosporin] (cyclo(A[dA][NMeL][NMeL][NMeV][MeBmt][Abu][dNMeA][X73]V[NMeL])) | 0.6 | 0.4 | 0.3 | 45 | 6800 | 5000 | – |

— patent US9566312B2, “Cyclic peptides and use as medicines” (priority 2012, dated 2017)
